How the values were obtained:
Format in all cases: cell-based, mouse
NIH-3T3 cells [1] = assay: Growth experiments, NIH-3T3 cells; conditions: for rescue of TGFβ-induced growth defect: TGFβ, 0.2, 1 or 5 mM metabolite
Excerpt: NIH-3T3 cells were obtained from ATCC (CRL-1658); 293 T cells were obtained from ATCC (CRL-3216). PSCs were isolated from C57BL/6 mice by differential centrifugation as previously described^49 and their mesenchymal origin was validated by analyzing the expression of various mesenchymal and epithelial markers. MFBs were isolated from FVB/N mice by differential centrifugation as previously described^50. DB7 mouse breast cancer cells were obtained from Alexander Borowsky (University of California Davis Comprehensive Cancer Center, Sacramento, CA, USA) through an MTA to Ohio State University (OSU). KPC (Kras^LSL-G12D; Trp53^LSL-R172H; Pdx1-Cre) mouse PDAC cells were a gift from Scott Lowe (Memorial Sloan Kettering Cancer Center. (MSKCC)). All cells were cultured at 37° C. in 5% carbon dioxide (CO2) and 20% oxygen (O2) and were maintained in Dulbecco's Modified Eagles medium (DMEM) (25 mM D-glucose, 2 mM L-glutamine) supplemented with 10% fetal bovine serum (FBS) (Gemini), 100 units/ml penicillin and 100 μg/ml streptomycin. Primary PSC and MFB cells were kept in culture for no more than ten passages. Experiments with iCAFs and myCAFs were performed as previously described^29. In brief, qPSCs were generated by culturing PSCs in a dome of GFR Matrigel (Corning) in DMEM; iCAFs were generated by culturing PSCs in a dome of GFR Matrigel in DMEM conditioned by KPC cells for 48 h; myCAFs were generated by monolayer culture of PSCs. Differentiation was validated by analyzing the expression of iCAF/myCAF markers^29. For experiments with different glutamine concentrations, cells were seeded in regular DMEM and the medium was changed 5-6 hours later or the following day to glucose and glutamine-free DMEM supplemented with 10% dialyzed FBS (Gemini) and 20 mM D-glucose, 2 mM L-glutamine (100%), 0.4 mM L-glutamine (20%) or 0.2 mM L-glutamine (10%). All media were prepared by the Media Preparation Facility at MSKCC. Cells were verified as mycoplasma-free by the MycoAlert Mycoplasma Detection Kit (Lonza).
A total of 0.2×10^5 cells/well were plated in 24-well culture plates and media was changed and treatments started 5-6 hours later. Cell numbers at the start of treatment (day 0 “d 0”) and 1, 2 and 3 days later were counted using the Multisizer 4e (Beckman) and normalized to the cell number at d 0. In co-culture assays, a fraction of the cell population was analyzed by flow cytometry for GFP expression, and the rest counted with the Multisizer 4e. The number of KPC-GFP cells was determined by multiplying the fraction of GFP+ cells with the total number of cells.

NIH-3T3 cells [2] = assay: Quantification of gene expression (qPCR), fibroblasts; conditions: for Col1a1 mRNA expression: PC-deleted cells, 10% Gln, 48 hours (FIG. 5D, FIG. 11N)
Protocol: Total RNA was isolated from fibroblasts with Trizol (Life Technologies) according to the manufacturer's instructions, and […] RNA was used for cDNA synthesis using iScript (Bio-Rad). Real-time qPCR analysis was performed in technical triplicates using 1:40 diluted cDNAs and 0.1 μM forward and reverse primers together with Power SYBR Green (Life Technologies) in a QuantStudio 7 Flex (Applied Biosystems). Gene expression was quantified in Microsoft Excel 365 as relative expression ratio using primer efficiencies calculated by a relative standard curve. The geometric mean of the endogenous control genes 18 s, Actb and Rplp0 was used as reference sample.

NIH-3T3 cells [3] = assay: tRNA charging assay, NIH-3T3 cells
Protocol: Charging status of the indicated tRNA isodecoders was measured as previously described^20. In brief, Trizol-chloroform extracts were precipitated with 2.7× volumes of cold ethanol in the presence of 30 μg GlycoBlue (ThermoFisher) overnight. Samples were resuspended in 0.3 M acetate buffer (pH 4.5) with 10 mM ethylenediamine tetraacetic acid (EDTA) and precipitated overnight. Samples were resuspended in 10 mM acetate buffer with 1 mM EDTA. 2 μg of each RNA sample was treated with 10 mM of either sodium periodate (Sigma) (‘oxidized sample’) or sodium chloride (‘non-oxidized sample’) and incubated for 20 minutes at room temperature in the dark. Reactions were quenched with glucose for 15 minutes. Yeast Phe-tRNA (Sigma) was spiked into each sample, followed by ethanol precipitation. Samples were resuspended in 50 mM Tris buffer (pH 9) and incubated for 50 minutes at 37° C., quenched with acetate buffer and precipitated. […] Reverse transcription was performed with SuperScript IV reverse transcriptase (Thermo Scientific) according to the manufacturer's instructions, with a primer complementary to the DNA adaptor. cDNA samples were subjected to qPCR with tRNA isodecoder-specific primer pairs listed in Supplementary Table 1. Ct values obtained with primers specific for yeast Phe-tRNA were subtracted from Ct values obtained with isodecoder-specific primers. The charged fraction was calculated based on the relative difference between the delta-Ct value of a non-oxidized (representing total) and oxidized (representing charged) sample for each primer pair.

NIH-3T3 cells [4] = assay: Translation assay (OPP), NIH-3T3 cells; conditions: TGFβ
Protocol: Cells were treated as indicated and incubated with 20 μM O-propargyl-puromycin (OPP, Thermo Scientific) for the last 1 hour of the experiment. Cells were harvested by trypsinization and fixed with methanol at −20° C., followed by permeabilization with 0.5% Triton X-100 in phosphate-buffered saline (PBS).

Row | Molecule | rescue of TGFβ-induced growth defect (NIH-3T3 cells [1]; 10% Gln, 3 days) | Col1a1 mRNA expression (NIH-3T3 cells [2]) | charging of glutamine-tRNA (NIH-3T3 cells [3]; 10% Gln, TGFβ 2 ng/mL, dm-αKG 5 mM with or without MSO 2 mM, 48 hours (FIG. 2A)) | translation (NIH-3T3 cells [4]; 10% Gln, dm-αKG (FIG. 2B)) | charging state of glutamine-tRNA (NIH-3T3 cells [3]; low Gln (10%), TGFβ, 48 hours (FIG. 1D)) | bulk translation (NIH-3T3 cells [4]; low Gln (10%), 48 hours, compared to control cells (FIG. 1F)) | cell proliferation (NIH-3T3 cells [1]; 10% Gln, TGFβ) | cell proliferation (NIH-3T3 cells [1]; 100% and 50% Gln, TGFβ 2 ng/mL, 3 days) | PC transcript levels (NIH-3T3 cells [2]; all fibroblast types analysed, 100% Gln, TGFβ 24 hours)
1 | COC(=O)CC[C@H](N)C(=O)OC [dm-Glu, L-glutamic acid dimethylester] | sufficient to restore | rescued |  |  |  |  |  |  | 
2 | COC(=O)CCC(=O)C(=O)OC [dm-αKG, dimethyl alpha-ketoglutarate] | able to rescue | rescued | restored | promoted |  |  |  |  | 
3 | TGFβ: transforming growth-factor beta; TGFβ-1 purchased from Peprotech |  |  |  |  | profound uncharging | reduced | ceased to proliferate | did not change | reduced

From patent US20260152533A1, “COMBINATION INHIBITORS FOR TREATING FIBROSIS” (Memorial Sloan-Kettering Cancer Center, priority 2021, published 2026)
